Series [1] deals with T1, Nuclear factor NF-kappa-B complex (Homo sapiens) (UniProt Q00653+P19838+Q04206). In words: Inhibition of NF-kappaB in human U-937 cells assessed as reduction in translocation of p65 NF-kappaB in from cytosol to nucleus at 0.01 uM treated followed by 3 hrs LPS stimulation by Western blot analysis. It is filed as cell-based. Background: In western blotting, separated proteins are transferred to a membrane and probed.

Series [2] addresses T1, Nuclear factor NF-kappa-B complex (Homo sapiens). As to the kind of experiment: Inhibition of NF-kappaB in human U-937 cells assessed as reduction in translocation of p65 NF-kappaB in from cytosol to nucleus at 0.01 uM treated followed by 3 hrs LPS stimulation hrs by immunohistochemical staining/confocal microscopy. It is filed as cell-based.
Series [3] has as its system U-937. In words: Anti-inflammatory activity in human U-937 cells assessed as reduction in LPS-induced ROS production at 0.01 uM followed by LPS stimulation and measured after 24 hrs relative to control. It is filed as functional, cell-based.
The test system of series [4] is U-937. As to the kind of experiment: Anti-inflammatory activity in human U-937 cells assessed as reduction in LPS-induced NO production at 0.01 uM followed by LPS stimulation and measured after 24 hrs relative to control. The series is classed as functional, cell-based.
Series [5] deals with U-937. In words: Cytotoxicity against human U-937 cells assessed as cell viability at 0.01 uM measured after 72 hrs. The series is classed as cell-based. The settings on record: u-937, 72 h.
In series [6] the target is T1, Nuclear factor NF-kappa-B complex (Homo sapiens). As to the kind of experiment: Inhibition of NF-kappaB in human U-937 cells assessed as reduction in LPS-induced p65 expression at 0.01 uM treated followed by 3 hrs LPS stimulation by Western blot analysis. It is filed as cell-based.
Series [7] has the same target. As to the kind of experiment: Inhibition of NF-kappaB activation in human U-937 cells assessed as reduction in LPS-induced ACLY activity after 48 hrs. It is filed as cell-based.
The target is the same in series [8]. In words: Inhibition of NF-kappaB activation in human U-937 cells assessed as reduction in LPS-induced PGE2 production after 48 hrs. The series is classed as cell-based.

The source of these data is ChEMBL document CHEMBL4825723, “Synthesis of new methoxy derivatives of trans 2,3-diaryl-2,3-dihydrobenzofurans and evaluation of their anti-inflammatory activity” (Bioorg Med Chem Lett, 2021).

The structures appear in SMILES notation. The source made the active and inactive calls. The rule behind the calls is not given here.

T1 sequence (P19838 whole entry, looked up): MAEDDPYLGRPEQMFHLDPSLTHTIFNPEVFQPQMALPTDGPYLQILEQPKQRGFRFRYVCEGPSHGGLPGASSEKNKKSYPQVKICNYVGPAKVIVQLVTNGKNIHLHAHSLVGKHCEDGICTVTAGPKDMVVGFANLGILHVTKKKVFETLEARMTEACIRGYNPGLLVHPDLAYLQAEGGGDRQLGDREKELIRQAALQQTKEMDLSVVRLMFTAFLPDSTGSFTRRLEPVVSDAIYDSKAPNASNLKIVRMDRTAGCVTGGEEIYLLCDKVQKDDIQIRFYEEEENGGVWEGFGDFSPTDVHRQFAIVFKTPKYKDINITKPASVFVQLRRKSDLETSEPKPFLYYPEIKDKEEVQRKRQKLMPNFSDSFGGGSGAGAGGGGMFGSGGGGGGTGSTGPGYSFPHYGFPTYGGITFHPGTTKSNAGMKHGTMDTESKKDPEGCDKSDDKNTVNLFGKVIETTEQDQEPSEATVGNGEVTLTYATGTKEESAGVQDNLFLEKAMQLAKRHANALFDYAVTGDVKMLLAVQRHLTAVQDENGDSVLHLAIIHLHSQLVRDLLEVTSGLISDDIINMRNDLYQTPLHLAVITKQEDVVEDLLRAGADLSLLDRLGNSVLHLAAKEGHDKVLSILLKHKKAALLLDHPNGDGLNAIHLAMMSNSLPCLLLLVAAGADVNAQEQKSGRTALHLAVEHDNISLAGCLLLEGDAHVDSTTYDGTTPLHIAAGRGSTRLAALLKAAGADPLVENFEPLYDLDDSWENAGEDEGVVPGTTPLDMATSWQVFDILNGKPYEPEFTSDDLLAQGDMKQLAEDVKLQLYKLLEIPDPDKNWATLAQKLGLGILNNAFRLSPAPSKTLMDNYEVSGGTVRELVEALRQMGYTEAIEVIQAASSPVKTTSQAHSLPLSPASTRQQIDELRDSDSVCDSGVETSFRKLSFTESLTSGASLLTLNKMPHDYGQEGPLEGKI
T1 sequence (Q00653 whole entry, looked up): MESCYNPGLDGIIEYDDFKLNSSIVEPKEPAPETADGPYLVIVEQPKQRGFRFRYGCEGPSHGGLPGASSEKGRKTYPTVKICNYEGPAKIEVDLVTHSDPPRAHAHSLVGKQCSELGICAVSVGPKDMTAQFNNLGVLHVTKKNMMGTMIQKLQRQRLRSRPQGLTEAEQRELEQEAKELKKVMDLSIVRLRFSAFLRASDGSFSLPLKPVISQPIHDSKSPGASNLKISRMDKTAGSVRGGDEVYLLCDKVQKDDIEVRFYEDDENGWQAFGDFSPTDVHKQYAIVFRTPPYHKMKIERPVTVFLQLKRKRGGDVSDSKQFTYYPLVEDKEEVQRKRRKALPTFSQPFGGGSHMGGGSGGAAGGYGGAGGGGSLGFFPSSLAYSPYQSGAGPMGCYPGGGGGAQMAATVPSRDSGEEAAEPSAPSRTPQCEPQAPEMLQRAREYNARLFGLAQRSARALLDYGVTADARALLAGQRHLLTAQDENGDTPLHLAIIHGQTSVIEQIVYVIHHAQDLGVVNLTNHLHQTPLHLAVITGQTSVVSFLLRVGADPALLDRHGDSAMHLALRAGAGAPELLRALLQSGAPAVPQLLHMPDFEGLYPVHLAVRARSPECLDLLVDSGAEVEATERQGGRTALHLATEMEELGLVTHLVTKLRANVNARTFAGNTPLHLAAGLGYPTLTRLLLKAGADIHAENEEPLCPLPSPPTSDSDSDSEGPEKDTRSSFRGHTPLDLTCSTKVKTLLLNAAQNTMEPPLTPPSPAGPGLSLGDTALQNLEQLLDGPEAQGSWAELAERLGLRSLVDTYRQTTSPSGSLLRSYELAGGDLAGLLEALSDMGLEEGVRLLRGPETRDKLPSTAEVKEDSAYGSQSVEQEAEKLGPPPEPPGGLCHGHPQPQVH
T1 sequence (Q04206 whole entry, looked up): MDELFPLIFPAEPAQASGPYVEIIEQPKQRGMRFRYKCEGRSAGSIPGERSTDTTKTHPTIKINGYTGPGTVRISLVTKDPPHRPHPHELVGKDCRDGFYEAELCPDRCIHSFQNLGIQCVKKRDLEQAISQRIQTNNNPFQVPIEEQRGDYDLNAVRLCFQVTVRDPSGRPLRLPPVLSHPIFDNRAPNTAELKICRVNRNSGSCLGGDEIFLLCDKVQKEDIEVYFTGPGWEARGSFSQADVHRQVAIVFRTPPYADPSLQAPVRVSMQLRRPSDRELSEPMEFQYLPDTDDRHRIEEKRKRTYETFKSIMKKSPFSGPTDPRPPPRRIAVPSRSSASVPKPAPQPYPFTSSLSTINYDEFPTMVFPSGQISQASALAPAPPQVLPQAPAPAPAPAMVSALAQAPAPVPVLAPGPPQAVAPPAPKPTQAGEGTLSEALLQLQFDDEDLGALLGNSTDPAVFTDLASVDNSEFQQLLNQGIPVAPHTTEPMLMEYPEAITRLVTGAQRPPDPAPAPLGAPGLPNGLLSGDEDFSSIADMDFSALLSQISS

As usually defined, the inhibition is the relative decrease from the control value, in per cent. Regarding `CO[C@@]1(c2ccccc2)c2ccccc2O[C@H]1c1ccccc1`, the inhibition result in series [1] and in series [2] was “Active” throughout. Moreover, the result in series [3] and in series [4] was Active. The Activity result in series [5] is “Non-Toxic”. Also, in series [6], the “Inhibition of LPS-induced p65 expression” value is “Active”.

Regarding `COc1ccc2c(c1)[C@@H](c1ccccc1)[C@H](c1ccccc1)O2` [listing 1 of 2 here], the inhibition entry in series [1], in series [2], in series [7] and in series [8] was “Active” throughout. Moreover, the result in series [3] and in series [4] was Active.

Take `COc1ccc2c(c1)[C@@H](c1ccccc1)[C@H](c1ccccc1)O2` (mixture of isomers): the inhibition entry in series [1] and in series [2] was “Active” in each case. Besides, the outcome in series [3] and in series [4] was Active. The inhibition stood at 43% in series [7] (concentration not given here) and 28% in series [8] (concentration not given here). The “Inhibition of LPS-induced p65 expression” value in series [6] is “Active”.

On to `COc1ccc2c(c1)C(c1cc(Br)cc(Br)c1)C(c1ccccc1)O2` (stereo not given), for which the Activity result in series [5] is reported as “Non-Toxic”.

On to `COc1ccc2c(c1)[C@@H](c1ccc(Br)cc1)[C@H](c1ccccc1)O2`, for which the inhibition result in series [1] and in series [2] was “Active” each time. In addition, the result in series [3] and in series [4] was Active. Besides, the Activity result in series [5] is reported as “Non-Toxic”. Besides, the “Inhibition of LPS-induced p65 expression” value in series [6] is “Active”.

Consider `COc1ccc2c(c1)[C@@H](c1ccc(Br)cc1)[C@@H](c1ccccc1)O2`, for which the inhibition entry in series [1] and in series [2] was “Active” in each case. Moreover, the outcome in series [3] and in series [4] was Active. Besides, the Activity result in series [5] is given as “Non-Toxic”. The “Inhibition of LPS-induced p65 expression” value in series [6] is “Active”.

Consider `COc1ccc2c(c1)[C@@H](c1ccccc1)[C@H](c1ccccc1)O2` [listing 2 of 2 here], for which the Activity result in series [5] is “Non-Toxic”.

With `COc1ccc2c(c1)C(c1ccccc1)C(c1ccccc1)O2` (racemic), the inhibition entry in series [1], in series [2] and in series [8] was “Active” in each case. In addition, the outcome in series [3] and in series [4] was Active. For the same compound, the inhibition in series [7] (concentration not given here) stood at 32%. Also, the “Inhibition of LPS-induced p65 expression” value in series [6] is “Active”.

Regarding `COc1ccc2c(c1)[C@@H](c1ccccc1)[C@H](c1ccccc1)O2` (single isomer, unassigned), the inhibition entry in series [1] and in series [2] was “Active” each time. Moreover, in series [6], the “Inhibition of LPS-induced p65 expression” value was “Active”.

Consider `COC1(c2ccc(Br)cc2)c2ccccc2OC1c1ccccc1` (mixture of isomers), for which the Activity entry in series [5] was “Toxic”. Further, the “Inhibition of LPS-induced p65 expression” value in series [6] is “Active”.
